# Data taken from US6337417B1, “N-phenyltetrahydrophthalamic acid derivatives, methods of producing same, and herbicides containing same as effective components” (Central Glass Co., Ltd., priority 1994, dated 2002).
# Key:
# [1] = tested on: ichibi (velvetleaf, Abutilon theophrasti); test: Experiment 3 foliage treatment: ichibi; assay type: in vivo; design: key: 5: completely killed; 4: seriously injured; 3: considerably injured; 2: somewhat injured; 1: slightly injured; 0: not injured (normally grown); conditions: 4 weeks after treatment
# Procedure: (§1) Upon seedling stage (two- or three-leaved stage) of ichibi (velvetleaf, Abutilon theophrasti), onamomi (heartleaf cocklebur, Xanthium strumarium) (4L stage), noasagao (blue morningglory, Ipomoea indica) and ooinutade (pale smartweed, Persicaria lapathifolia) which were grown on a cultivated soil put in pots of 1/8850 ares, a selected compound obtained in a manner analogous to Example 8, in suspended wettable powder, was sprayed to each plant. After that, the pots were kept in a glass chamber to allow each plant to grow, and after the lapse of 4 weeks from the treatment with the selected compounds the herbicidal effects were evaluated. The evaluation of the herbicidal effects was similarly conducted as to that of Experiment 1.
# [2] = tested on: onamomi (heartleaf cocklebur, Xanthium strumarium); test: Experiment 3 foliage treatment: onamomi; assay type: in vivo; design: key: 5: completely killed; 4: seriously injured; 3: considerably injured; 2: somewhat injured; 1: slightly injured; 0: not injured (normally grown); conditions: 4 weeks after treatment
# Procedure: as §1
# [3] = tested on: noasagao (blue morningglory, Ipomoea indica); test: Experiment 3 foliage treatment: noasagao; assay type: in vivo; design: key: 5: completely killed; 4: seriously injured; 3: considerably injured; 2: somewhat injured; 1: slightly injured; 0: not injured (normally grown); conditions: 4 weeks after treatment
# Procedure: as §1
# [4] = tested on: ooinutade (pale smartweed, Persicaria lapathifolia); test: Experiment 3 foliage treatment: ooinutade; assay type: in vivo; design: key: 5: completely killed; 4: seriously injured; 3: considerably injured; 2: somewhat injured; 1: slightly injured; 0: not injured (normally grown); conditions: 4 weeks after treatment
# Procedure: as §1
# [5] = tested on: ichibi (velvetleaf, Abutilon theophrasti); test: Experiment 6 foliage treatment: ichibi; assay type: in vivo; design: key: 5: completely killed; 4: seriously injured; 3: considerably injured; 2: somewhat injured; 1: slightly injured; 0: not injured (normally grown); conditions: foliage spray of wettable powder suspension, evaluated 4 weeks after treatment
# Procedure: as §1, with “(4 L” for “(4L”, “11,” for “8,”, “as” for “as to”
# [6] = tested on: onamomi (heartleaf cocklebur, Xanthium strumarium); test: Experiment 6 foliage treatment: onamomi; assay type: in vivo; design: key: 5: completely killed; 4: seriously injured; 3: considerably injured; 2: somewhat injured; 1: slightly injured; 0: not injured (normally grown); conditions: foliage spray of wettable powder suspension, evaluated 4 weeks after treatment
# Procedure: as §1, with “(4 L” for “(4L”, “11,” for “8,”, “as” for “as to”
# [7] = tested on: noasagao (blue morningglory, Ipomoea indica); test: Experiment 6 foliage treatment: noasagao; assay type: in vivo; design: key: 5: completely killed; 4: seriously injured; 3: considerably injured; 2: somewhat injured; 1: slightly injured; 0: not injured (normally grown); conditions: foliage spray of wettable powder suspension, evaluated 4 weeks after treatment
# Procedure: as §1, with “(4 L” for “(4L”, “11,” for “8,”, “as” for “as to”
# [8] = tested on: ooinutade (pale smartweed, Persicaria lapathifolia); test: Experiment 6 foliage treatment: ooinutade; assay type: in vivo; design: key: 5: completely killed; 4: seriously injured; 3: considerably injured; 2: somewhat injured; 1: slightly injured; 0: not injured (normally grown); conditions: foliage spray of wettable powder suspension, evaluated 4 weeks after treatment
# Procedure: as §1, with “(4 L” for “(4L”, “11,” for “8,”, “as” for “as to”
# [9] = tested on: ichibi (velvetleaf, Abutilon theophrasti); test: Experiment 9 foliage treatment: ichibi; assay type: in vivo; design: key: 5: completely killed; 4: seriously injured; 3: considerably injured; 2: somewhat injured; 1: slightly injured; 0: not injured (normally grown); conditions: foliage spray of wettable powder suspension, evaluated 4 weeks after treatment
# Procedure: as §1, with “14,” for “8,”, “as” for “as to”
# [10] = tested on: onamomi (heartleaf cocklebur, Xanthium strumarium); test: Experiment 9 foliage treatment: onamomi; assay type: in vivo; design: key: 5: completely killed; 4: seriously injured; 3: considerably injured; 2: somewhat injured; 1: slightly injured; 0: not injured (normally grown); conditions: foliage spray of wettable powder suspension, evaluated 4 weeks after treatment
# Procedure: as §1, with “14,” for “8,”, “as” for “as to”
# [11] = tested on: noasagao (blue morningglory, Ipomoea indica); test: Experiment 9 foliage treatment: noasagao; assay type: in vivo; design: key: 5: completely killed; 4: seriously injured; 3: considerably injured; 2: somewhat injured; 1: slightly injured; 0: not injured (normally grown); conditions: foliage spray of wettable powder suspension, evaluated 4 weeks after treatment
# Procedure: as §1, with “14,” for “8,”, “as” for “as to”
# [12] = tested on: ooinutade (pale smartweed, Persicaria lapathifolia); test: Experiment 9 foliage treatment: ooinutade; assay type: in vivo; design: key: 5: completely killed; 4: seriously injured; 3: considerably injured; 2: somewhat injured; 1: slightly injured; 0: not injured (normally grown); conditions: foliage spray of wettable powder suspension, evaluated 4 weeks after treatment
# Procedure: as §1, with “14,” for “8,”, “as” for “as to”
smiles,measurement,setting,value
"CCc1cnc(C2=NC(C)(C(C)C)C(=O)N2)c(C(=O)O)c1 (stereo not shown) [Comparative agentC, Pursuit, reference compound]",Herbicidal Effect ichibi,[1]; 4 g/10a,3
same,Herbicidal Effect ichibi,[1]; 8 g/10a,3
same,Herbicidal Effect onamomi,[2]; 4 g/10a,4
same,Herbicidal Effect onamomi,[2]; 8 g/10a,5
same,Herbicidal Effect noasagao,[3]; 4 g/10a,3
same,Herbicidal Effect noasagao,[3]; 8 g/10a,4
same,Herbicidal Effect ooinutade,[4]; 4 g/10a,5
same,Herbicidal Effect ooinutade,[4]; 8 g/10a,5
same,Herbicidal Effect ichibi,[5]; 4 g/10a,3
same,Herbicidal Effect ichibi,[5]; 8 g/10a,3
same,Herbicidal Effect onamomi,[6]; 4 g/10a,4
same,Herbicidal Effect onamomi,[6]; 8 g/10a,5
same,Herbicidal Effect noasagao,[7]; 4 g/10a,3
same,Herbicidal Effect noasagao,[7]; 8 g/10a,4
same,Herbicidal Effect ooinutade,[8]; 4 g/10a,5
same,Herbicidal Effect ooinutade,[8]; 8 g/10a,5
same,Herbicidal Effet ichibi,[9]; 4 g/10a,3
same,Herbicidal Effet ichibi,[9]; 8 g/10a,3
same,Herbicidal Effet onamomi,[10]; 4 g/10a,4
same,Herbicidal Effet onamomi,[10]; 8 g/10a,5
same,Herbicidal Effet noasagao,[11]; 4 g/10a,3
same,Herbicidal Effet noasagao,[11]; 8 g/10a,4
same,Herbicidal Effet ooinutade,[12]; 4 g/10a,5
same,Herbicidal Effet ooinutade,[12]; 8 g/10a,5
"COC(=O)Cc1sc(F)c(N(C(C)=O)C(=O)C2=C(C(=O)OC)CCCC2)c1Cl [compound 11, N-acetyl-N-(4-chloro-2-fluoro-5-methoxycarbonylmethylthiophenyl)-3,4,5,6-tetrahydrophthalamic acid methyl ester]",melting point,,124 to 124.5 °C
